Patent US8987193B2, “Nisin derivatives and the use thereof” (University College Cork—National University of Ireland, Cork, priority 2008, dated 2015)
Entries after “also recorded” stand apart in the source; their conditions may differ. Ends that are not written are not given here.

Experiments:
[1] = system: L. monocytogenes CBC1; test: Deferred antagonism assay; format: cell-based, Listeria monocytogenes; set-up: key: + = Enhanced bioactivity relative to control; − = Bioactivity equal to or less than control; NA = no activity evident; settings: L. mono CBC1; XX and XXX hinge mutant producers
Procedure: (§1) Deferred antagonism assays were performed by replicating strains on GM17 or GM17 x-gal agar plates and allowing them to grow overnight before overlaying with either GM17/BHI/TS/MH agar (0.75% w/v agar) seeded with the appropriate indicator strain. Zone size was calculated as the diameter of the zone of clearing minus the diameter of bacterial growth (5 mm) For higher throughput screening of N20PXX, XM21VX, XXK22T and XXX banks deferred antagonism assays were performed by replicating strains using a 96 pin replicator (Boekel) or spotting 5 μl of a fresh overnight culture on GM17 agar plates and allowing them to grow overnight. […] Additional sets of indicators were employed to further assess/reassess the bioactivity of a number of strains. […] For well-diffusion assays molten agar was cooled to 48° C. and seeded with the appropriate indicator strain. The inoculated medium was rapidly transferred into sterile Petri plates in 50 ml volumes, allowed to solidify and dried. Wells (4.6 mm in diameter) were then made in the seeded plates. Purified nisin and mutant nisins were resuspended in 0.005% acetic acid, serially diluted, 50 μl volumes were dispensed into the aforementioned wells and the plates incubated at 37° C. overnight. Bioactivity was expressed as arbitrary units/ml (AU/ml) and calculated as the reciprocal of the highest dilution that gave a definite zone multiplied by the conversion factor (i.e. 20 when 50 μl was used) (Ryan et al., 1996).
(§2) As a consequence of the enhanced activities of K22T and K22S, a more in-depth investigation of this region was carried out. Saturation mutagenesis was undertaken to create a bank of nisin A hinge derivatives containing the vast majority of possible amino acid substitutions for each position. Although pPTPL was used successfully for random mutagenesis, its relatively large size of approx 10.5 kb was considered unsuitable for the complete plasmid PCR amplification approach utilized for saturation mutagenesis. A smaller (approx 6 kb) E. coli-L. lactis shuttle vector pCI372 was considered to be potentially more useful. Its suitability with respect to the in trans expression of nisA was confirmed by the ability of pDFO5 to restore the nisin positive phenotype. Saturation mutagenesis was performed on each codon using pDF05 and oligonucleotides (Table 5) that replace the specific codon with a NNK triplet, potentially encoding all 20 standard amino acids. Following complete plasmid amplification and introduction into the intermediate Top10 host, sequence analysis of a pooled bank of pDF05 derivatives confirmed randomization. Introduction of these variants into L. lactis NZ9800 allowed the expression of mutant nisin A peptides for further analysis. […] 46 residue conversions were isolated. All strains, regardless of bioactivity, were assessed with a view to comprehensively assessing the consequences of each individual hinge alteration.

[2] = system: L. monocytogenes CBC2; test: Deferred antagonism assay; format: cell-based, Listeria monocytogenes; set-up: key: + = Enhanced bioactivity relative to control; − = Bioactivity equal to or less than control; NA = no activity evident; settings: L. mono CBC2; XX and XXX hinge mutant producers
Procedure: as §1, §2

[3] = system: L. monocytogenes CBC3; test: Deferred antagonism assay; format: cell-based, Listeria monocytogenes; set-up: key: + = Enhanced bioactivity relative to control; − = Bioactivity equal to or less than control; NA = no activity evident; settings: L. mono CBC3; XX and XXX hinge mutant producers
Procedure: as §1, §2

[4] = system: L. lactis CBC7; test: Deferred antagonism assay; format: cell-based; set-up: key: + = Enhanced bioactivity relative to control; − = Bioactivity equal to or less than control; NA = no activity evident; settings: XX and XXX hinge mutant producers
Procedure: as §1, §2

[5] = system: L. lactis CBC8; test: Deferred antagonism assay; format: cell-based; set-up: key: + = Enhanced bioactivity relative to control; − = Bioactivity equal to or less than control; NA = no activity evident; settings: XX and XXX hinge mutant producers
Procedure: as §1, §2

[6] = system: S. aureus CBC4; test: Deferred antagonism assay; format: cell-based; set-up: key: + = Enhanced bioactivity relative to control; − = Bioactivity equal to or less than control; NA = no activity evident; settings: XX and XXX hinge mutant producers
Procedure: as §1, §2

[7] = system: L. plantarum CBC6; test: Deferred antagonism assay; format: cell-based, Lactobacillus plantarum; set-up: key: + = Enhanced bioactivity relative to control; − = Bioactivity equal to or less than control; NA = no activity evident; settings: XX and XXX hinge mutant producers
Procedure: as §1, §2

[8] = system: indicator strains; test: Deferred antagonism assays, various indicator strains (summary); format: cell-based; settings: for Target strain against which the hinge mutant was selected for enhanced bioactivity: XX and XXX banks, L. lactis HP*: enhanced or equal; for Target strain against which the hinge mutant was selected for enhanced bioactivity / Strain(s) against which the derivative (producing strain) displays enhanced bioactivity: relative to nisin A-producing control; for number of targets with enhanced activity: of the 8 additional targets tested; for Strain(s) against which the derivative (producing strain) displays enhanced bioactivity: value = strains listed
Procedure: as §1

Substance | bioactivity relative to a nisin A-producing control [1] | bioactivity relative to a nisin A-producing control [2] | bioactivity relative to a nisin A-producing control [3] | bioactivity relative to a nisin A-producing control [4] | bioactivity relative to a nisin A-producing control [5] | bioactivity relative to a nisin A-producing control [6] | bioactivity relative to a nisin A-producing control [7] | Target strain against which the hinge mutant was selected for enhanced bioactivity [8] | number of targets with enhanced activity [8] | Strain(s) against which the derivative (producing strain) displays enhanced bioactivity [8]
NisinA PMQ | − | − | + | + | + | + | − | Strep. agalactiae ATCC 13813/B. cereus UCC1 | 4 | S. agalactiae ATCC13813, B. cereus UCC1, L. monocytogenes CBC3, S. aureus CBC4 , and L. lactis CBC7 , CBC8; also recorded: S. agalactiae ATCC13813, B. cereus UCC1, L. mono CBC3,
NisinA PTL (ITSISLCTPGCKTGALMGCPTLTATCHCSIHVSK; thioether (positions not given here); not fully specified (residues 2, 5, 33, bridges); also: lantibiotic nisin A, thioether rings and dehydro residues not given here; UniProt P13068 24-57, looked up, variant N20P M21T K22L) [nisin A hinge variant PTL (i.e. N20P, M21T, K22L)] | − | − | + | + | − | + | − | C. sporogenes UCC1 | 3 | C. sporogenes UCC1, L. monocytogenes CBC3 and CBC 4 , and L. lactis CBC7; also recorded: C. sporogenes UCC1, L mono CBC3, 4, L. lactis CBC7
NisinA PIT (ITSISLCTPGCKTGALMGCPITTATCHCSIHVSK; not fully specified (bridges); also: lantibiotic nisin-A: lanthionine rings and dehydrated residues, places not given here; UniProt P13068 24-57, looked up, variant N20P M21I K22T) [nisin A hinge variant PIT (i.e. N20P, M21I, K22T)] |  |  |  |  |  |  |  | L. lactis HP* | 3 | S. agalactiae ATCC13813 and strain B and S. aureus NCDO1499
NisinA PIH (ITSISLCTPGCKTGALMGCPIHTATCHCSIHVSK; not fully specified (bridges); also: lantibiotic nisin-A: lanthionine rings and dehydrated residues, places not given here; UniProt P13068 24-57, looked up, variant N20P M21I K22H) [nisin A hinge variant PIH (i.e. N20P, M21I, K22H)] |  |  |  |  |  |  |  | L. lactis HP* | 1 | S. agalactiae Strain B
NisinA PHT (ITSISLCTPGCKTGALMGCPHTTATCHCSIHVSK; not fully specified (bridges); also: lantibiotic nisin-A: lanthionine rings and dehydrated residues, places not given here; UniProt P13068 24-57, looked up, variant N20P M21H K22T) [nisin A hinge variant PHT (i.e. N20P, M21H, K22T)] |  |  |  |  |  |  |  | Strep. agalactiae ATCC 13813 | 3 | Strep. agalactiae ATCC 13813 and Strain B, and L. lactis MG1363; also recorded: Strep. agalactiae ATCC 13813, L. lactis MG1363, S. agalactiae
NisinA PGA (ITSISLCTPGCKTGALMGCPGATATCHCSIHVSK; not fully specified (bridges); also: lantibiotic nisin-A: lanthionine rings and dehydrated residues, places not given here; UniProt P13068 24-57, looked up, variant N20P M21G K22A) [nisin A hinge variant PGA (i.e. N20P, M21G, K22A)] |  |  |  |  |  |  |  | L. lactis HP* | 3 | S. agalactiae ATCC13813 and strain B and S. aureus NCDO1499
PHM: nisin A hinge variant PHM (i.e. N20P, M21H, K22M) (ITSISLCTPGCKTGALMGCPHMTATCHCSIHVSK; not fully specified (bridges); also: lantibiotic nisin-A: lanthionine rings and dehydrated residues, places not given here; UniProt P13068 24-57, looked up, variant N20P M21H K22M) |  |  |  |  |  |  |  | Strep. agalactiae ATCC 13813 | 2 | Strep. agalactiae ATCC 13813 and Strain B; also recorded: Strep. agalactiae ATCC 13813, S. agalactiae Strain B
NisinA PAQ (ITSISLCTPGCKTGALMGCPAQTATCHCSIHVSK; not fully specified (bridges); also: lantibiotic nisin-A: lanthionine rings and dehydrated residues, places not given here; UniProt P13068 24-57, looked up, variant N20P M21A K22Q) [nisin A hinge variant PAQ (i.e. N20P, M21A, K22Q)] |  |  |  |  |  |  |  | L. lactis HP* | 3 | S. agalactiae ATCC13813 and strain B and S. aureus NCDO1499
NisinA PIV (ITSISLCTPGCKTGALMGCPIVTATCHCSIHVSK; not fully specified (bridges); also: lantibiotic nisin-A: lanthionine rings and dehydrated residues, places not given here; UniProt P13068 24-57, looked up, variant N20P M21I K22V) [nisin A hinge variant PIV (i.e. N20P, M21I, K22V)] |  |  |  |  |  |  |  | L. lactis HP* | 3 | S. agalactiae ATCC13813 and strain B and S. aureus NCDO1499
NisinA PMA |  |  |  |  |  |  |  | Strep. agalactiae ATCC 13813 | 1 | Strep. agalactiae ATCC 13813 and S. aureus DPC5246
